Data as given in US9447029B2, “Fluorinated arylalkylaminocarboxamide derivatives” (NEWRON PHARMACEUTICALS S.P.A., priority 2011, dated 2016).
Structures can show the parent of a compound that is named as a salt.

Legend:
CYP2D6 = CYP2D6 (Homo sapiens (Human), UniProt P10635); test: Inhibition of Cytochrome P4502D6 (CYP2D6) using Supersomes; format: in vitro ADME; conditions: AMMC substrate, read-out: IC50 (Fluorinated derivative)
Protocol: The inhibition of Cytochrome P4502D6 (CYP2D6) is assessed by performing in vitro inhibition studies using Supersomes, microsomes derived from baculovirus infected insect cells; the baculoviruses are engineered to express one or more drug metabolizing enzyme cDNAs. Supersomes catalyze the same enzymatic reactions as human liver microsome enzymes, but they contain much higher enzyme activity than other microsome sources (Crespi C. L. and Penman B. W., Advances Pharmacology, 43, 171-188 (1997); Crespi C. L. and Miller V. P., Analytical Biochemistry, 248, 188-190 (1997)).
Kits with Supersomes are Supplied by GENTEST (MA, USA).
Test compound is dissolved in DMSO 500× the highest final concentration desired in the IC50 assay. 30 ml of deionized water is pre-warmed to 37° C. and all kit components are placed on ice. For each well of column 1, 149.4 μL of NADPH-Cofactor Mix, (187.5 μl of Cofactors, 150 μl of G6PDH, 100 μl of Control Protein and 14.56 ml of 37° C. water) are added.
In each well from Column 2 to 12, 100 μl of Cofactor/DMSO mix (40 μL DMSO in 9.96 ml of NADPH-Cofactor Mix) are added. To each well of column 1, 0.6 μl of test compound or positive control are added. 50 μl from each well of column 1 are serially diluted to column 8. The extra 50 μl from column 8 are discarded. The plate is covered and pre-incubated at 37° C. for 10 minutes.
Preparation of enzyme/substrate mix: 7.92 ml of pre-warmed deionized water, 75 μl of enzyme, 3 μl of 10 mM AMMC and 2 ml of pre-warmed buffer are mixed.
After the pre-incubation time (10′), 100 μl of enzyme/substrate mix to each well from column 1 to 10 are added. The plate is incubated at 37° C. for 30 minutes. After this time, 75 μl of Stop Reagent to each well are added. For blank controls, 100 μl of enzyme/substrate mix are added to columns 11 and 12.
Plates are read at the Victor plate reader (Perkin Elmer, MA—USA) at 390 nm excitation and 460 nm emission wavelengths.

[1] = test system: TTXs sodium channels (ND7/23 cells); test: TTXs-sodium channel influx assay (fluorescence, membrane potential kit); format: cell-based, rat; conditions: veratridine 100 μM
Protocol: ND7/23 rat dorsal root ganglion-derived cell line endogenously expresses a mixed population of TTXs sodium channels (such as Nav1.3, Nav1.2, Nav1.1, Nav1.6). These cells lack of TTXr sodium channels as shown by the absence of their respective transcripts. ND7/23 cells are grown in Dulbecco's Modified Eagle Medium (DMEM, Invitrogen, CA—USA) supplemented with 10% Foetal Bovine Serum (FBS, Invitrogen, CA—USA) and 1 mM sodium piruvate. The cells are seeded at 50,000 cells/well on 96 poly-L-lysine-coated plates and further incubated for 18-24 h before use.
The Membrane Potential Kit Assay (Molecular Devices, CA—USA), based on a negatively charged fluorescent dye able to monitor changes in membrane potential caused by the sodium influx due to the channel opening, is used for the assay.
Cells are incubated with the dye loading for 30 minutes at 25° C. Then, 100 nM of the toxin Anemonia sulcata (used as enhancer of the channel opener response) alone or in the presence of TTX (as reference standard) or test compound are added for further 15 minutes.
The fluorescence (excitation: 530 nm, emission: 565 nm wavelength) is measured before and after (40-45 s) the automated injection of the sodium channel opener veratridine (100 μM) using a Victor plate reader (Perkin Elmer, MA—USA).
The inhibition curves are calculated from 5 concentrations, each in triplicate, and the IC50 determined using a linear regression analysis.
The results, obtained with some compounds which are representative of the entire class of compounds of the invention are reported in Table 1.

Chain of CYP2D6 (P10635 whole entry): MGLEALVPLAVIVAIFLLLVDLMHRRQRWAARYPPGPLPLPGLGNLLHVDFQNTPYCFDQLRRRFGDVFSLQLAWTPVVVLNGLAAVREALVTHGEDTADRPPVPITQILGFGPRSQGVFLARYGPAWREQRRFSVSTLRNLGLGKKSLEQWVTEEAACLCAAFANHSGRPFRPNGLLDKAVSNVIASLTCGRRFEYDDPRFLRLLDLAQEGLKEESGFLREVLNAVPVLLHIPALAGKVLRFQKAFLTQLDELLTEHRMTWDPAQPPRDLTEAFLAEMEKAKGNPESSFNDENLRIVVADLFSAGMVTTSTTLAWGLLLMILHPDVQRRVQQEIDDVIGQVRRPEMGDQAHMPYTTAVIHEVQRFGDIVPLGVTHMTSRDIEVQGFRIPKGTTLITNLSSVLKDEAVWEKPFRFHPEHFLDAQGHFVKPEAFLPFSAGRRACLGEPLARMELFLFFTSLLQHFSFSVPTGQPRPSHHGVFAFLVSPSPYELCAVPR

CCCCOc1cccc(C(F)(F)CNCC(=O)N(CCC)CCC)c1 [Example 1-3, 2-[2,2-Difluoro-2-(3-butoxyphenyl)-ethylamino]-N,N-dipropyl-acetamide, hydrochloride]
IC50 (CYP2D6): 23.9 µM
IC50 [1]: 0.58 µM
